Data reported in paper PMC6941357, “An in vitro toolbox to accelerate anti-malarial drug discovery and development” (Malaria Journal, 2020).
Values after ≈ are worked out from the molar mass of the structure shown. Values joined by “and” are separate entries in the source; they are usually repeats but may differ in a detail not shown here. Equal entries are not always repeated. Where two headings read alike, the source gives them in different places.

Tests used:
[1] = Solubility limited absorbable dose (SLAD) calculation with predicted human jejunal Peff; details: for solubility: FaSSIF
Excerpt: Predicted Peff values were obtained from a calibration plot of literature Peff values vs measured Caco-2 Papp using either buffer or plasma as the transport medium (see Results section).

[2] = Octanol/pH 7.4 buffer partition coefficient, shake flask; details: pH 7.4
Procedure, shortened: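 Octanol stocks (3-30 mg/mL) were diluted 3- and 10-fold and shaken with equal volumes of pH 7.4 phosphate buffer (67 mM, in 43 mM NaCl) at 37 °C. Both phases were quantified by LC-MS against calibration standards. The coefficient is the mean octanol/buffer concentration ratio, with two time points confirming equilibrium.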

[3] = Solubility in biorelevant media; details: for solubility at 1 h: FaSSGF; for solubility at 1 h / solubility: thermodynamic from solid
Procedure, shortened: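 Measured at 37 °C with 600 rpm orbital shaking in pH 7.4 PBS, FaSSIF-V2, FeSSIF-V2 and FaSSGF. Sampled at 1 h (FaSSGF) or 5–6 h (other media) after double centrifugation; supernatant quantified by LC–MS against calibration standards, triplicate aliquots.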

[4] = Plasma protein binding via ultracentrifugation (UC); assay type: in vitro ADME, human; details: human, pH 7.4, ultracentrifugation, neat plasma, read-out: Fraction unbound, human plasma
Procedure, shortened: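 Pooled human plasma (3–4 donors) spiked and ultracentrifuged; protein-free supernate gave Cunbound, parallel tubes kept at 37 °C gave Ctotal and stability (start vs end). Samples matrix-matched 1:1 with opposite blank and quantified against a common calibration curve; fu SD by error propagation.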

[5] = molecular target: CYP2C9 (Homo sapiens, UniProt P11712); experiment: Cytochrome P450 inhibition in human liver microsomes
Procedure, shortened: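 Each compound is incubated with human liver microsomes and a probe substrate whose conversion is mediated by one CYP isoform. Reactions are then quenched with ice-cold acetonitrile, and the metabolite is determined by LC–MS.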

[6] = In vitro metabolism (metabolic stability) in human liver microsomes; details: human
Procedure, shortened: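 Compound depletion in human liver microsomes was followed by LC–MS at 2–60 min, with cofactor-free controls. First-order depletion rate constants gave in vitro CLint (µL/min/mg protein), corrected to unbound CLint using measured microsomal fu.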

[7] = molecular target: T1, Albumax medium (lipid rich bovine serum albumin) (Bos taurus, UniProt P02769); experiment: Binding in Albumax medium via ultracentrifugation; assay type: in vitro ADME; details: bovine, isolated protein, pH 7.4
T1 construct: purchased Gibco, Thermo Fisher Scientific
Procedure, shortened: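 Unbound fraction (fu) taken as protein-free supernate concentration over total concentration after ultracentrifuging compound-spiked Albumax at 37 °C (5% or 10% CO2, or air). Analysis used 1:1 mixing with the opposite blank matrix against a common pH 7.4 calibration; degradation judged by start versus end Ctotal.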

[8] = based on ref 80 and control compounds
[9] = from Caco-2 Papp via calibration plot
[10] = 37 °C, fassgf or other biorelevant
[11] = phosphate buffered saline pH 7.4, 37 °C, pH 7.4, aqueous buffer
[12] = liver microsomes, pH 7.4, HLM CLint, human liver microsomes, average of n = 2 replicates, < 7 means < 15% loss over 60 min

T1 sequence (P02769 25-607): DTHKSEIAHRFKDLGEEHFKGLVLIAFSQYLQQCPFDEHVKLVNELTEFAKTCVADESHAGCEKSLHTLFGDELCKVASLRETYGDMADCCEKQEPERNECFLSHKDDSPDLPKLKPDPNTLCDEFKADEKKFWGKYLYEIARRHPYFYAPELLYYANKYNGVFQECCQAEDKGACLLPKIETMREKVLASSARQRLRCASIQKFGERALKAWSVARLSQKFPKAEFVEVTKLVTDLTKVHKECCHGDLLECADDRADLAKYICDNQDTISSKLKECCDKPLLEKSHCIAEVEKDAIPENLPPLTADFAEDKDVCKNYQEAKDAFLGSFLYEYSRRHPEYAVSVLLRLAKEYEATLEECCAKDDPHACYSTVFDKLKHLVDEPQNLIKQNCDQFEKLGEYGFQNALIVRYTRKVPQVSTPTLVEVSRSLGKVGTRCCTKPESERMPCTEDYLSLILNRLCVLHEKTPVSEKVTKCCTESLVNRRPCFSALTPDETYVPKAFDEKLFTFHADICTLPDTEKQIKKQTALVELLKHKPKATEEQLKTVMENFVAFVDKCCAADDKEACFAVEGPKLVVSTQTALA
CYP2C9, sequence (P11712 whole entry, canonical isoform): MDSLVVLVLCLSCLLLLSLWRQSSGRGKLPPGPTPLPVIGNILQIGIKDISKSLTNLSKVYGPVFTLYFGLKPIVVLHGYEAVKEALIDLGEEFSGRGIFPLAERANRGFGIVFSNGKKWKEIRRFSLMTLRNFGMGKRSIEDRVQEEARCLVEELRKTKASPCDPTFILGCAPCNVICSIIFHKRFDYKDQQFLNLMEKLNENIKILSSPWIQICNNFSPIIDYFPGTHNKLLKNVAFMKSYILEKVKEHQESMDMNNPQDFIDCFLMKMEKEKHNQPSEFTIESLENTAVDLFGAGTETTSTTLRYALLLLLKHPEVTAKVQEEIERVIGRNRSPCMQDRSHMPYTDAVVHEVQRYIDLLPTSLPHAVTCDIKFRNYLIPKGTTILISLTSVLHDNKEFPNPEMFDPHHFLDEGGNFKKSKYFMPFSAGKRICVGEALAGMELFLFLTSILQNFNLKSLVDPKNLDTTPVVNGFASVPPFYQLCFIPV

Structure (SMILES)	solubility [1]	An (absorption number) ([1]; Peff × tres/R, minimum 1)	SLAD ([1]; Ssi × V (500 mL) × Mp)	Permeability classification [1, 8]	Predicted human Peff [1, 9]	logD ([2]; octanol/pH 7.4 buffer)	solubility at 1 h [3, 10]	solubility ([3]; FaSSIF-V2, 37 °C, fassif)	solubility ([3]; FeSSIF-V2, 37 °C, fessif)	solubility [3, 11]	fraction unbound at […] ([4]; neat pooled plasma)	IC50 [5]	CYP2C9 % inhibition at max conc ([5]; microsomes)	microsomal CLint at 1 µM [6, 12]	fraction unbound at […], 500 ng/mL [7]	also measured
CO[C@H]1O[C@@H]2O[C@@]3(C)CC[C@H]4[C@H](C)CC[C@@H]([C@H]1C)[C@@]24OO3 [Artemether]	166 µg/mL (≈ 556 µM)	4.7	388 mg	High (> 85% absorption (high))	3.9 10^−4 cm/s	3.7	95 µg/mL and 320 µM	166 µg/mL and 556 µM	1040 µg/mL and 3480 µM	109 µg/mL and 365 µM	0.1	> 20 µM	nmi	163 µL/min/mg	0.46 ± 0.039	
COc1ccc2nc3cc(Cl)ccc3c(Nc3cc(CN4CCCC4)c(O)c(CN4CCCC4)c3)c2n1 [Pyronaridine]	> 2000 µg/mL	1.6	> 1610 mg	High (> 85% absorption (high))	1.4 10^−4 cm/s	0.23	> 2000 µg/mL and > 3800 µM	> 2000 µg/mL and > 3860 µM	> 2000 µg/mL and > 3800 µM	357 µg/mL and 689 µM	0.21	> 20 µM	nmi	8.6 µL/min/mg	0.69 ± 0.023	
CCc1nc(N)nc(N)c1-c1ccc(Cl)cc1 [Pyrimethamine]		5.9	326 mg	High (> 85% absorption (high))	4.9 10^−4 cm/s	2.41	> 2000 µg/mL and > 8000 µM	111 µg/mL and 446 µM	120 µg/mL and 483 µM	43 µg/mL and 175 µM	0.085		nmi	< 7 µL/min/mg	0.46 ± 0.09	
COc1cc(NC(C)CCCN)c2ncccc2c1 (centres unmarked) [Primaquine]	> 2000 µg/mL														0.96 ± 0.056	Permeability classification [1]: High (key: High: > 85% absorption (high); Intermediate: 50–84% absorption (intermediate); Low: < 50% absorption (low)); An (absorption number) ([1]; human): 3.6; Predicted human Peff ([1]; human): 3.0 10^−4 cm/s; SLAD ([1]; human): > 3560 mg; Log D7.4 [2]: 0.54; logD [2]: 0.54; FaSSGF solubility [3]: > 2000 µg/mL; FaSSIF solubility [3]: > 2000 µg/mL; FeSSIF solubility [3]: > 2000 µg/mL; solubility [3, 10]: > 2000 µg/mL and > 7700 µM; solubility ([3]; 37 °C, fassif): > 2000 µg/mL and > 7700 µM; solubility ([3]; 37 °C, fessif): > 2000 µg/mL and > 7700 µM; solubility ([3]; 37 °C, pH 7.4, aqueous buffer): > 7.7 mM; Solubility PBS7.4 (5–6 h) ([3]; pH 7.4): > 2000/> 7700 µg/mL; fraction unbound at […] [4]: 0.26 ± 0.023; inhibition at 20 µM ([5]; human, microsomes, pH 7.4): 20%; microsomal CLint at 1 µM ([6]; microsomes, pH 7.4): 7.7 µL/min/mg
